Reference: patent US20250388605A1, “HETEROBIFUNCTIONAL COMPOUNDS AND METHODS OF TREATING DISEASE” (Halda Therapeutics OpCo, Inc., priority 2022, published 2025)

Tests used:
VCaP cells = experiment: Cellular growth inhibition assay for VCaP cells, CellTiter-Glo; assay type: cell-based, human; conditions: Homo sapiens, 72 hours
Outline: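 GI50 values come from four-parameter curve fits of luminescence data normalized to a zero baseline. Compound, in medium with 0.5% DMSO, was added one day after plating and left for 72 h before CellTiter-Glo 2.0 addition.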

BRD4-BD1 = target: T1, BRD4-BD1 (Homo sapiens, UniProt O60885); experiment: Binding affinity to BRD4-BD1 (bromoKdELECT assay); conditions: 11-point 3-fold dilution series
T1 construct: made in house; host or cells: T7 phage grown in an E. coli host derived from the BL21 strain

BRD4-BD2 = target: T2, BRD4-BD2 (Homo sapiens, UniProt O60885); experiment: Binding affinity to BRD4-BD2 (bromoKdELECT assay); conditions: 11-point 3-fold dilution series
T2 construct: made in house; host or cells: T7 phage grown in an E. coli host derived from the BL21 strain

Row | Structure (SMILES) | GI50 (VCaP cells) | Kd (BRD4-BD1) | Kd (BRD4-BD2)
1 | CCS(=O)(=O)c1ccc(OC(CCCCN2CCN(c3ncc(C(=O)NC4C(C)(C)C(Oc5ccc(C#N)c(Cl)c5)C4(C)C)cn3)CC2)C2CC2)c(-c2cn(C)c(=O)c3[nH]ccc23)c1 (stereo not drawn) [Compound I-223, N-[3-(3-chloro-4-cyano-phenoxy)-2,2,4,4-tetramethyl-cyclobutyl]-2-[4-[5-cyclopropyl-5-[4-ethylsulfonyl-2-(6-methyl-7-oxo-1H-pyrrolo[2,3-c]pyridin-4-yl)phenoxy]pentyl]piperazin-1-yl]pyrimidine-5-carboxamide] | < 500 nM | < 50 nM | < 50 nM
2 | CCS(=O)(=O)c1ccc(OCC(CCCN2CCN(c3ncc(C(=O)NC4C(C)(C)C(Oc5ccc(C#N)c(Cl)c5)C4(C)C)cn3)CC2)C2CC2)c(-c2cn(C)c(=O)c3[nH]ccc23)c1 (stereo not drawn) [Compound I-231, N-[3-(3-chloro-4-cyano-phenoxy)-2,2,4,4-tetramethyl-cyclobutyl]-2-[4-[4-cyclopropyl-5-[4-ethylsulfonyl-2-(6-methyl-7-oxo-1H-pyrrolo[2,3-c]pyridin-4-yl)phenoxy]pentyl]piperazin-1-yl]pyrimidine-5-carboxamide] | < 500 nM | < 50 nM | < 50 nM

The next lines start with the values.

Row | GI50 (VCaP cells) | Kd (BRD4-BD1) | Kd (BRD4-BD2) | Structure (SMILES)
3 | < 500 nM | > 2500 nM | 50 to 500 nM | CN(CCCc1ccc(Oc2ccc(C(C)(C)O)cc2-c2cn(C)c(=O)c3[nH]ccc23)cc1)c1ncc(C(=O)N[C@H]2C(C)(C)[C@H](Oc3ccc(C#N)c(Cl)c3)C2(C)C)cn1 [Compound I-211]
4 | < 500 nM | < 50 nM | < 50 nM | CC(C)N(CC1CCN(c2ncc(C(=O)N[C@H]3C(C)(C)[C@H](Oc4ccc(C#N)c(Cl)c4)C3(C)C)cn2)CC1)[C@H]1C[C@H](Oc2cccc(Oc3ccc(C(C)(C)O)cc3-c3cn(C)c(=O)c4[nH]ccc34)c2F)C1 [Compound I-214]
5 | < 500 nM | < 50 nM | < 50 nM | Cn1cc(-c2cc(C(C)(C)O)ccc2Oc2ccc(N3CC(CN4CC5CC4CN5c4ncc(C(=O)N[C@H]5C(C)(C)[C@H](Oc6ccc(C#N)c(Cl)c6)C5(C)C)cn4)C3)cc2)c2cc[nH]c2c1=O (stereo partly drawn) [Compound I-228]
